{
  "source": "paper PMC4710668",
  "about": "“Bioactivation of food genotoxicants 5-hydroxymethylfurfural and furfuryl alcohol by sulfotransferases from human, mouse and rat: a comparative study” (Archives of Toxicology, 2014)",
  "test_in_all_cases": "HMF sulfoconjugation assay",
  "assay_type_in_all_cases": "biochemical",
  "key": {"mSult1e1": {"target": "T1, mSult1e1 (Mus musculus, UniProt P49891)", "T1 construct": "made in house; host or cells: Salmonella typhimurium TA1538 (cytosolic fraction, enzyme not purified)", "T1 sequence (P49891 1-295)": "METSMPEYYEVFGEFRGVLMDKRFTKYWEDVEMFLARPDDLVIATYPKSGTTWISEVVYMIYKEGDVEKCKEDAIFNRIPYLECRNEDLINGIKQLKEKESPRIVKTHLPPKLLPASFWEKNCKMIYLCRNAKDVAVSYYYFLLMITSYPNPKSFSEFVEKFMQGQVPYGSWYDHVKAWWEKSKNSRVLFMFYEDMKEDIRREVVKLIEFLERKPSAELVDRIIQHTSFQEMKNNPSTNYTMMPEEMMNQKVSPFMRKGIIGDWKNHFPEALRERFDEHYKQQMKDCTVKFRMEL", "description": "(§1) Cytosolic fractions containing individual SULT forms were prepared from transgenic S. typhimurium TA1538. Table S1 in the Supplementary Material provides a summary of the thirty SULTs used in the current study together with references describing the cloning of the respective S. typhimurium TA1538 strains. The expressed SULT forms are denoted with the prefixes h, m and r for human, mouse and rat enzymes, respectively. Bacteria were grown in Luria Broth medium containing ampicillin (100 µg/ml) by stirring for 8 h at 200 revolutions/min at 37 °C. The bacterial suspensions were centrifuged at 5,000 g for 10 min. The sediments were washed twice with 25 ml of 10 mM potassium phosphate buffer (pH 7.4)/50 mM potassium chloride (KCP buffer) and centrifuged again. The pellets were taken up in 800 µl KCP buffer and sonicated thrice for 15 s with 30 s pauses in between. The soluble fraction was attained by centrifuging for 1 h at 100,000 g. The supernatants (in the following termed cytosolic preparations) were frozen at −80 °C. The protein concentrations were determined according to a bicinchoninic acid (BCA) assay protocol. The SULT concentrations in the cytosolic preparations were estimated after electrophoretic separation and immunodetection using inclusion bodies of different SULT forms as standards (Teubner et al. [2007]). The preparation of SULT inclusion bodies and the immunodetection of SULTs is described in the Supplementary Material, which also contains a representative immunoblot of different amounts of rSult1a1standard and a cytosolic preparation of S. typhimurium expressing rSult1a1 (Fig. S1).\n(§2) The reactions were conducted in mixtures of 100 µl containing 25–200 µg protein, 50 mM potassium phosphate buffer (pH 7.4), 5 mM MgCl2, 50 µM PAPS and different concentrations of HMF at 37 °C. Preliminary experiments ensured that measurements were recorded under ‘linear’ conditions, i.e., doubling of protein concentration or incubation time was doubling the amount of sulfate ester formed. The reactions were stopped after 30 min by adding 300 µl ice-cold 2-propanol, mixed and centrifuged at 15,000 g for 10 min.\n(§3) SMF concentrations of the clear supernatants were analyzed by UPLC-MS/MS. The protocol was adapted from the quantification of SMF in plasma samples of HMF-treated mice (Monien et al. [2009]). In short, the supernatants were analyzed using a UPLC system (Waters) connected to a Quattro Premier XE tandem quadrupole mass spectrometer (Waters) using the negative electrospray ionization mode. Samples of 4 µl were injected into a HSS T3 column (1.8 µm, 2.1 × 100 mm; Waters) and eluted with an isocratic flow of 0.35 ml/min 10 mM ammonium acetate/methanol (95:5). The fragmentation reactions of SMF yielding two principal ions, the sulfate ion radical (m/z = 204.9 → 96.0) and the protonated sulfonate ion (m/z = 204.9 → 81.0) were monitored. The tune parameters were as follows: temperature of the electrospray source 120 °C; desolvation temperature 475 °C; desolvation gas nitrogen (800 l/h); cone gas nitrogen (100 l/h); collision gas argon (indicated cell pressure ~5 × 10^−3 mbar). For the fragmentation of SMF, collision energies were 20 and 23 eV for the transitions m/z = 204.9 → 81.0 and m/z = 204.9 → 96.0, respectively. The dwell time was set to 100 ms, and capillary voltage was set to 0.35 kV. The cone and RF1 lens voltages were 32 and 0.2 V, respectively. SMF was quantified using an external calibration line that was linear in the concentration range of 1.0 nM (4 fmol/injection) to 2,500 (10 pmol/injection) SMF (r ^2 ≥ 0.99). Data acquisition and handling were performed with MassLynx 4.1 software (Waters). The limit of detection (LOD) for this technique of 2.5 nM SMF has been reported (Monien et al. [2009]). In the current study, this corresponds to 10 fmol SMF per injection or a reaction rate of 0.5 pmol SMF/mg/min."}, "mSult1b1": {"target": "T2, mSult1b1 (Mus musculus, UniProt Q9QWG7)", "T2 construct": "made in house; host or cells: Salmonella typhimurium TA1538 (cytosolic fraction, enzyme not purified)", "T2 sequence (Q9QWG7 whole entry)": "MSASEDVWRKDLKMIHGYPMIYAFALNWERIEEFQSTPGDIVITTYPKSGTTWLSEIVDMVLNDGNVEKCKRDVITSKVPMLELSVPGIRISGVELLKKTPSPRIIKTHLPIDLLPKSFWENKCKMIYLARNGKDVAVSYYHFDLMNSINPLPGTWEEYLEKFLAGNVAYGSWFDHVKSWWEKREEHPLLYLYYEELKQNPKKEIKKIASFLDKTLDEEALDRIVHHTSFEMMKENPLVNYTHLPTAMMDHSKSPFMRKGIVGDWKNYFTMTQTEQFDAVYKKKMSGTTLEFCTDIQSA", "description": "as §1, §2, §3"}, "rSult2b1": {"target": "T3, rSult2b1 (Rattus norvegicus, UniProt Q29YR5)", "T3 construct": "made in house; host or cells: Salmonella typhimurium TA1538 (cytosolic fraction, enzyme not purified)", "T3 sequence (Q29YR5 1-340)": "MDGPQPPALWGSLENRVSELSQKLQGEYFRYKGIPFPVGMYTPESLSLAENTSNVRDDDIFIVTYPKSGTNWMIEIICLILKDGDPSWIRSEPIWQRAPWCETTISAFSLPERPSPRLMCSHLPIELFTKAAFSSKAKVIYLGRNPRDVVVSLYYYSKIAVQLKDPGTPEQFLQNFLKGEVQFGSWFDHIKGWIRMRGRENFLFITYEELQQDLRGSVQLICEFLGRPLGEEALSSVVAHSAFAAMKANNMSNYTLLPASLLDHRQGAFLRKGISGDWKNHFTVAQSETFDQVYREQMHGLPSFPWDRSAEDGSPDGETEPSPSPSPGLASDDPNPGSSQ", "description": "as §1, §2, §3"}, "mSult2a2": {"target": "T4, mSult2a2 (Mus musculus, UniProt P50236)", "T4 construct": "made in house; host or cells: Salmonella typhimurium TA1538 (cytosolic fraction, enzyme not purified)", "T4 sequence (P50236 1-285)": "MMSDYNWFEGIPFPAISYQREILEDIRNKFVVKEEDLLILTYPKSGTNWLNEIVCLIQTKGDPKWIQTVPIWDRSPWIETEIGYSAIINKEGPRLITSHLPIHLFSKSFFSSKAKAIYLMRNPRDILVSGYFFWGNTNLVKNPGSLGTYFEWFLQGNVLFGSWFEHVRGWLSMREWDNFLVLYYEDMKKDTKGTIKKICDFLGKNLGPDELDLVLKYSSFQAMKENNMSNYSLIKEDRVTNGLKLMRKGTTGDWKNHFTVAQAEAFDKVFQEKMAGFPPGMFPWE", "description": "as §1, §2, §3"}},
  "data": [
    {"smiles": "O=Cc1ccc(CO)o1", "note": "[HMF, 5-Hydroxymethylfurfural]", "values": [
      {"measurement": "Rate of sulfoconjugation", "setting": "mSult1e1; 0.1 mM HMF", "value": "3.7 ± 0.3", "unit": "pmol/mg/min"},
      {"measurement": "Rate of sulfoconjugation", "setting": "mSult1e1; 1 mM HMF", "value": "35.5 ± 2.6", "unit": "pmol/mg/min"},
      {"measurement": "Rate of sulfoconjugation", "setting": "mSult1e1; 10 mM HMF", "value": "226 ± 9", "unit": "pmol/mg/min"},
      {"measurement": "Rate of sulfoconjugation", "setting": "mSult1e1; 100 mM HMF", "value": "534 ± 52", "unit": "pmol/mg/min"},
      {"measurement": "Rate of sulfoconjugation", "setting": "mSult1b1; 0.1 mM HMF", "value": "0.9 ± 0.1", "unit": "pmol/mg/min"},
      {"measurement": "Rate of sulfoconjugation", "setting": "mSult1b1; 1 mM HMF", "value": "8.2 ± 0.1", "unit": "pmol/mg/min"},
      {"measurement": "Rate of sulfoconjugation", "setting": "mSult1b1; 10 mM HMF", "value": "66.2 ± 6.8", "unit": "pmol/mg/min"},
      {"measurement": "Rate of sulfoconjugation", "setting": "mSult1b1; 100 mM HMF", "value": "64.4 ± 5.0", "unit": "pmol/mg/min"},
      {"measurement": "K M", "setting": "mSult1b1; HMF sulfoconjugation, Michaelis-Menten fit", "value": "9.5 ± 1.1", "unit": "mM"},
      {"measurement": "Rate of sulfoconjugation", "setting": "rSult2b1; 0.1 mM HMF", "value": "<0.5", "unit": "pmol/mg/min"},
      {"measurement": "Rate of sulfoconjugation", "setting": "rSult2b1; 1 mM HMF", "value": "<0.5", "unit": "pmol/mg/min"},
      {"measurement": "Rate of sulfoconjugation", "setting": "rSult2b1; 10 mM HMF", "value": "<0.5", "unit": "pmol/mg/min"},
      {"measurement": "Rate of sulfoconjugation", "setting": "rSult2b1; 100 mM HMF", "value": "<0.5", "unit": "pmol/mg/min"},
      {"measurement": "Rate of sulfoconjugation", "setting": "mSult2a2; 0.1 mM HMF", "value": "<0.5", "unit": "pmol/mg/min"},
      {"measurement": "Rate of sulfoconjugation", "setting": "mSult2a2; 1 mM HMF", "value": "4.4 ± 0.8", "unit": "pmol/mg/min"},
      {"measurement": "Rate of sulfoconjugation", "setting": "mSult2a2; 10 mM HMF", "value": "32.4 ± 3.2", "unit": "pmol/mg/min"},
      {"measurement": "Rate of sulfoconjugation", "setting": "mSult2a2; 100 mM HMF", "value": "77.5 ± 11.7", "unit": "pmol/mg/min"}
    ]}
  ]
}
